Legend:
S. pyogenes = assay: MIC by standard CLSI agar dilution method, macrolide sensitive and resistant S. pyogenes; assay type: cell-based; design: MIC S. pyogenes Ery Susc. (801) / MIC S. pyogenes HLermB (3530): unit not given beside the values; conditions: 18 hrs at 37° C.; for MIC S. pyogenes Ery Susc. (801): strain Ery Susc. (801); for MIC S. pyogenes HLermB (3530): strain HLermB (3530), HL is High level resistance; for MIC S. pyogenes ermTR (810/806): strain ermTR (810/806); for MIC S. pyogenes mefA (806/763): strain mefA (806/763)
Protocol: (§1) The antibacterial activities of ketolide compounds of invention were evaluated by determining the minimal inhibitory concentration (MIC) according to standard CLSI agar dilution method. The media used for preculture and main culture were Tryptic Soya broth (Difco) and Mueller Hinton medium (Difco), respectively. The Mueller Hinton agar was supplemented with 5% sheep blood for streptococci and pneumococci, and with haemoglobin as well as NAD (nicotinamide adenine dinucleotide) for Haemophilus influenzae, respectively. Overnight cultures were diluted with buffered saline (pH 7.2) to the final cell density of 5×10^6-10^7 CFU/ml, and each bacterial suspension was applied with a replicator (Denley's multipoint inoculator, UK) onto a series of Mueller-Hinton agar plates containing antibacterial agents at various concentrations. Final inoculum was approximately 10^4 CFU/spot. The plates were incubated for 18 hrs at 37° C. The MIC was defined as the lowest concentration of an antibacterial agent that inhibits the development of visible microbial growth on agar.

S. pneumoniae = assay: MIC by standard CLSI agar dilution method, macrolide sensitive and resistant S. pneumoniae; assay type: cell-based; conditions: 18 hrs at 37° C.; for MIC S. pneumoniae Ery Susc. (49619): strain Ery Susc. (49619); for MIC S. pneumoniae HL-ermB (3773): strain HL-ermB (3773), HL is High level resistance; for MIC S. pneumoniae ermB (786): strain ermB (786); for MIC S. pneumoniae mefA (772): strain mefA (772)
Protocol: as §1

Row | Molecule | MIC S. pyogenes Ery Susc. (801) (S. pyogenes) | MIC S. pyogenes HLermB (3530) (S. pyogenes) | MIC S. pyogenes ermTR (810/806) (S. pyogenes) | MIC S. pyogenes mefA (806/763) (S. pyogenes) | MIC S. pneumoniae Ery Susc. (49619) (S. pneumoniae) | MIC S. pneumoniae HL-ermB (3773) (S. pneumoniae) | MIC S. pneumoniae ermB (786) (S. pneumoniae) | MIC S. pneumoniae mefA (772) (S. pneumoniae)
1 | CC[C@H]1OC(=O)[C@H](C)C(=O)[C@H](C)[C@@H](O[C@@H]2O[C@H](C)C[C@H](N(C)C)[C@H]2O)[C@](C)(OC)C[C@@H](C)C(=O)[C@H](C)[C@H]2N(CCCCn3cnc(-c4cccnc4)c3)C(=O)O[C@]12C [Telithromycin, reference compound] | 0.03 | 16.0 | 0.03 | 0.06 | 0.007 | 4.0 | 0.5 | 1.0
2 | (11S,21R)-3-Decladinosyl-11,12-dideoxy-6-O-methyl-3-oxo-12,11-{oxycarbonyl-[E-amino-(2-(pyrimidin-2-yl)-1,3,4-thiadiazol-5-yl-methyl)oxy-imino-methylene]}-erythromycin A [Example 2] | 0.007 | 0.25 | 0.015 | 0.06 | 0.007 | 1.0 | 0.06 | 0.25
3 | (11S, 21R)-3-Decladinosyl-11,12-dideoxy-6-O-methyl-3-oxo-12,11-{oxycarbonyl-[E-amino-(2-(pyridin-2-yl)-1,3,4-thiadiazol-5-yl-methyl)oxy-imino-methylene]}-erythromycin A [Example 1] | 0.015 | 0.5 | 0.015 | 0.06 | 0.007 | 1.0 | 0.06 | 0.06
